Measurements as given in EP0590919A1, “Therapeutic agents for parkinson's disease” (KYOWA HAKKO KOGYO CO., LTD., priority 1992, dated 1994).
Like-named read-outs stand apart in the source and are kept apart here. Marks after values point to notes of the source that are not given here.

Assays:
dd-strain male mice = assay: Acute toxicity test (minimum lethal dose, oral); type: in vivo; conditions: oral administration, three mice per group, mortality seven days after administration
Protocol: Test compounds were orally administered to groups of dd-strain male mice weighing 20 ± 1 g, each group consisting of three mice. Seven days after the administration, minimum lethal dose (MLD) of each compound was determined by observing the mortality.

A₂ receptor [1] = molecular target: T1, A₂ receptor (Rattus norvegicus, UniProt P30543); assay: Adenosine A₂ receptor binding test (³H-NECA binding); conditions: for Ki: ³H-NECA binding; for inhibition at 0.1 µM / inhibition at 1 µM / inhibition at 10 µM / inhibition at 100 µM: read-out: Inhibition (%) A₂ Receptor
T1 construct: from tissue; host or cells: rat corpus striatum membrane preparation
T1 sequence (P30543 whole entry): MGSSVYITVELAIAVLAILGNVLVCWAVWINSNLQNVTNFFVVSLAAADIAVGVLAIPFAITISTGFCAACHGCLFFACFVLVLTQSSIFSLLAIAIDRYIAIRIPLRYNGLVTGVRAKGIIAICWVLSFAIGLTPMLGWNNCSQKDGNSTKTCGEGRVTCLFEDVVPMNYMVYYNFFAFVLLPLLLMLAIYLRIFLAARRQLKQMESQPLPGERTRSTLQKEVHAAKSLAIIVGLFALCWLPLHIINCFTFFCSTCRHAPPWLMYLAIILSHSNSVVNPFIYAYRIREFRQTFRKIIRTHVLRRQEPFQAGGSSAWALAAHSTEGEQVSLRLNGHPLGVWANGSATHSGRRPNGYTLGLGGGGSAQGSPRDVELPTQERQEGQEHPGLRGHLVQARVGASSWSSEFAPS

[2] = test system: MPTP-treated C57BL/6 mice; assay: Effect on locomotor activity in Parkinson's disease model in mice (MPTP); type: in vivo; conditions: for Amount of Active Movements (average count ± S.E.M): MPTP (+)
Protocol: The experiment was performed by using several groups of 7-weeks-old male C57BL/6 mice (weighing 20 to 24 g, Japan SLC), each group consisting of 8 mice. MPTP (Aldrich Chemical Co., Inc.) dissolved in a physiological saline solution (Otsuka Pharmaceutical Co., Ltd.) was intraperitoneally administered to each mouse once a day for five consecutive days at a dose of 30 mg/kg. A test compound was suspended in injectable distilled water (Otsuka Phamaceutical Co., Ltd.) containing Tween 80 [polyoxyethylene (20) sorbitan monooleate]. L-DOPA (Kyowa Hakko Kogyo Co., Ltd.) was suspended in 0.3% CMC (sodium carboxylmethylcellulose) and bromocriptine was suspended in injectable distilled water. Thirty minutes after the final MPTP administration, the test compound suspensions and the control suspension [injectable distilled water (Otsuka Pharmaceutical Co., Ltd.) containing Tween 80] containing no test compound were orally administered to separate groups of the mice (0.1 ml per 10 g of body weight). […] Statistical comparison of the values was carried out by Student's t-test.

[3] = test system: Rats with a 6-Hydroxydopamine-Induced Unilateral Lesion of the Nigrostriatal Dopamine Pathway; assay: Augmentation of apomorphine-induced contralateral rotation in 6-hydroxydopamine-lesioned rats; type: in vivo; conditions: test compound 1 mg/kg orally 30 minutes before apomorphine 0.1 mg/kg s.c.; 150 minutes
Protocol: Then, the animals were anesthetized with sodium pentobarbital (30 mg/kg, i.p., Dainippon Pharm. Co., Ltd.) and the nigrostriatal pathway was lesioned by injection of 6-hydroxydopamine hydrobromide (8 µg, Sigma Co.) into the left medial forebrain bundle. 6-Hydroxydopamine hydrobromide was dissolved in physiological saline containing 0.05% L-ascorbic acid (Wako Pure Chem. Industries, Ltd.) to make 2 µl of solution and injected over 3 minutes.
More than 10 days after surgery, each rat was placed in a plastic bowl (30 cm in diameter). […] The number of rotations was counted with an automated rotometer, in which each 180° turn was counted as a rotation.
Test compounds were suspended in 0.3% sodium carboxymethylcellulose and administered orally at a dose of 1 mg/kg 30 minutes before the injection of apomorphine (0.1 mg/kg, s.c.). The counts of rotations were summed up every 5 minutes for 150 minutes after apomorphine administration. The total rotation counts induced by apomorphine (0.1 mg/kg, s.c.) with and without a test compound were statistically compared, using the same animals. Rats were allowed to rest more than 5 days between each experiment. Statistical comparison of the values was carried out by Sign-Wilcoxon test.

[4] = test system: Haloperidol-Induced Catalepsy; assay: Effect on haloperidol-induced catalepsy; type: in vivo, mice; conditions: for ED50: Mus musculus, 1 h, read-out: ED₅₀; for Number of the Animals Showing Remission: of five mice, catalepsy score not more than 4 points; for Number of the Animals Showing Remission / Remission Rate (%) / Total Score: 10 mg/kg orally; for Remission Rate (%): rate of decrease in total score based on control group; for Total Score: total catalepsy score of five mice (25 points at the full), haloperidol 1.0 mg/kg i.p.
How it was run: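 Mice got haloperidol 1.0 mg/kg i.p. in 0.3% CMC, then test compounds orally 1 hr later in 0.3% CMC or Tween 80/water. Catalepsy was scored on a 4.5 cm-high bar 1 hr after dosing; remission meant score ≤4 points. ED₅₀ came from Probit analysis.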

A₁ receptor = molecular target: T2, A₁ receptor (Cavia porcellus, UniProt P47745); assay: Adenosine A₁ receptor binding test (³H-CHA binding); parameters: species or system guinea pig; conditions: for inhibition at 100 µM: 10⁻⁴M; for inhibition at 100 µM / inhibition at 10 µM: guinea pig cerebrum; for inhibition at 10 µM: 10⁻⁵M
T2 construct: from tissue; host or cells: guinea pig cerebrum membrane preparation
T2 sequence (P47745 1-326): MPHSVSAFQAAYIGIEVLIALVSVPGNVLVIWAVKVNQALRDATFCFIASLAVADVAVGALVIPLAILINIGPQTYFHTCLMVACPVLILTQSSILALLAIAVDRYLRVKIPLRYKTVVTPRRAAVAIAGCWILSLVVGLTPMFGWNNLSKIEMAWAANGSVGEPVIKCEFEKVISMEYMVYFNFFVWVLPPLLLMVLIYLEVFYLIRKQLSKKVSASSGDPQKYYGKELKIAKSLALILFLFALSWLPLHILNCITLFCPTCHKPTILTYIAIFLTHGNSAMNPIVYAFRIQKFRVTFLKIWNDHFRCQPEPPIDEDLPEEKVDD
Protocol: Cerebrum of a guinea pig was suspended in ice-cooled 50 mM Tris hydroxymethyl aminomethane hydrochloride (Tris HCl) buffer (pH 7.7) by using Polytron homogenizer (manufactured by […] Co.). […] The suspension was centrifuged under the same conditions, and the final precipitate was suspended once again in 50 mM Tris HCl buffer to give a tissue concentration of 100 mg (wet weight)/ml. The tissue suspension was incubated at 37°C for 30 minutes in the presence of 0.02 unit/mg tissue of adenosine deaminase (manufactured by Sigma Co.). The tissue suspension was then centrifuged (50,000 x g, 10 minutes), and 50 mM Tris HCl buffer was added to the precipitate to adjust the concentration of tissue to 10 mg (wet weight)/ml. […] The mixture solution was allowed to stand at 25°C for 90 minutes and then rapidly filtered by suction through a glass fiber filter (GF/C manufactured by Whatman Co.). […] The radioactivity on the filter was determined with a liquid scintillation counter (manufactured by Packard Instrument Co.). […] The inhibition constant (Ki value) shown in the table was calculated by the Cheng-Prusoff's equation.

A₂ receptor [5] = molecular target: T1, A₂ receptor; assay: Adenosine A₂ receptor binding test (³H-CGS 21680 binding); conditions: [^3H]CGS 21680 was used, rat corpus striatum, read-out: A2 Receptor Inhibition (%)
Protocol: The similar procedure as in the above-described adenosine A₁ receptor binding test was repeated using rat corpus striatum to obtain the final precipitate of the tissue thereof. The precipitate was suspended in 50 mM Tris HCl buffer containing 10 mM magnesium chloride and 0.02 unit/mg tissue of adenosine deaminase (manufactured by Sigma Co.) to give a tissue concentration of 5 mg (wet weight)/ml.
The similar procedure as above was repeated to determine the radioactivity bound to the A₂ receptors using 50 µl of CGS 21680 labeled with tritium [³H-2-[p-(2-carboxyethyl)-phenethylamino]-5'-(N-ethylcarboxamide)adenosine: 40 Ci/mmol, manufactured by New England Nuclear Co. (J. Pharmacol. Exp. Ther., 251, 888 (1989)] (final concentration: 4.0 nM) in place of 50 µl of the mixture of N-ethylcarboxamidoadenosine labeled with tritium (³H-NECA: 26 Ci/mmol, manufactured by Amersham Co.) (final concentration: 3.8 nM) and cyclopentyladenosine (CPA, manufactured by Sigma Co.) (final concentration: 50 nM).
The inhibition rate of the test compound against the binding of A₂ receptors (³H-CGS 21680 binding) was calculated by the following equation: [formula] [Notes] • 1. "B" means the amount of radioactivity of ³H-CGS 21680 bound in the presence of a test compound at a concentration shown in Table 4. • 2. "T" means the amount of radioactivity of ³H-CGS 21680 bound in the absence of a test compound. • 3. "N" means the amount of radioactivity of ³H-CGS 21680 bound in the presence of 100 µM CPA.

[6] = test compound 10 mg/kg orally, 30 minutes starting 30 minutes after administration
[7] = test compound 2.5 mg/kg orally, 30 minutes starting 30 minutes after administration
[8] = ten mice at each dose, effective = catalepsy score 3 or less, Probit analysis, oral

Compound	MLD (dd-strain male mice) [mg/kg]	Ki (A₂ receptor [1]) [nM]	total amount of rotations (average count ± S.E.M.) test compound + apomorphine [3] [count]	Number of the Animals Showing Remission [4]	Remission Rate (%) [4] [%]	Total Score [4]	Amount of Active Movements (average count ± S.E.M) [2, 7] [count]	ED50 [4, 8] [mg/kg]	inhibition at 0.1 µM (A₂ receptor [1]) [%]	inhibition at 1 µM (A₂ receptor [1]) [%]	inhibition at 10 µM (A₂ receptor [1]) [%]	inhibition at 100 µM (A₂ receptor [1]) [%]	inhibition at 100 µM (A₁ receptor) [%]	inhibition at 10 µM (A₁ receptor) [%]	further results
CCn1c(=O)c2c(nc(/C=C/c3ccc(OC)c(C)c3OC)n2C)n(CC)c1=O [Compound 14, (E)-8-(2,4-Dimethoxy-3-methylstyryl)-1,3-diethyl-7-methylxanthine]	> 300	1.6	1378 ± 216	5	92	1									Amount of Active Movements (average count ± S.E.M) [2, 6]: 817 ±163.1 count; ED50 ([4]; po): 0.6 mg/kg
CC(C)C[C@H]1C(=O)N2CCC[C@H]2[C@]2(O)O[C@](NC(=O)[C@@H]3C=C4c5cccc6[nH]c(Br)c(c56)C[C@H]4N(C)C3)(C(C)C)C(=O)N12 [Bromocriptine, bromocriptine, reference compound]															inhibitory activity against the depression of locomotor activity caused by MPTP ([2]; mouse, in vivo): only a weak inhibitory activity
CCn1c(=O)c2c(nc(/C=C/c3ccc(OC)c(OC)c3)n2C)n(CC)c1=O [Compound 2, (E)-8-(3,4-Dimethoxystyryl)-1,3-diethyl-7-methylxanthine]	> 300		1584 ± 196	5	80	2	1265 ±316.9	0.03							Amount of Active Movements (average count ± S.E.M) ([2]; test compound 0.63 mg/kg orally, 30 minutes starting 30 minutes after administration): 610 ±147.9 count
COc1ccc(/C=C/c2nc3c(c(=O)n(C)c(=O)n3C)n2C)c(OC)c1OC [Compound 20, (E)-8-(2,3,4-Trimethoxystyryl)caffeine]	> 300	50		5	72	7	937 ±189.5	0.35	51	83	90	88	1	11	Ratio (A₁/A₂) (A₂ receptor [1]; ratio of Ki values A₁/A₂): > 2,000; Ki (A₁ receptor; Cheng-Prusoff's equation): > 100000 nM
N[C@@H](Cc1ccc(O)c(O)c1)C(=O)O [L-DOPA, reference compound]															Amount of Active Movements (average count ± S.E.M) ([2]; L-DOPA 300 mg/kg orally): 561 ±271.01^1) count; inhibitory activity against the depression of locomotor activity caused by MPTP ([2]; oral, L-DOPA 300 mg/kg, bromocriptine 40 mg/kg, Compounds (I) 10 mg/kg or less than 10 mg/kg): only a weak inhibitory activity
CCn1c(=O)c2c(nc(/C=C/c3ccc(OC)c(OC)c3OC)n2C)n(CC)c1=O [Compound 8, (E)-1,3-Diethyl-7-methyl-8-(2,3,4-trimethoxystyryl)xanthine]	> 300	3.9	1406 ± 155	5	92	2	800 ±156.8	0.23	80	99	95	74	94	89	
CCn1c(=O)c2c(nc(/C=C/c3cc(OC)c4c(c3)OCO4)n2C)n(CC)c1=O [Compound 107, (E)-1,3-Diethyl-8-(3-methoxy-4,5-methylenedioxystyryl)-7-methylxanthine]	> 100		1490 ± 146	5	92	3	604 ±192.6	0.01							inhibition at 1 µM (A₂ receptor [5]; 10^-6M): 84%; inhibition at 0.1 µM (A₂ receptor [5]; 10^-7M): 93%
CCn1c(=O)c2c(nc(/C=C/c3ccc(OC)c(C)c3C)n2C)n(CC)c1=O [Compound 10, (E)-1,3-Diethyl-8-(4-methoxy-2,3-dimethylstyryl)-7-methylxanthine]	> 300	2	1637 ± 127	5	68			0.24	91	94	90	93	56	57	Amount of Active Movements (average count ± S.E.M) [2, 6]: 754 ±174.2 count
